Values after ≈ are worked out from the molar mass of the structure shown. Like-named read-outs stand apart in the source and are kept apart here.
Assays:
Assay type in all cases: cell-based
E. coli strains = test: MIC against E. coli strains (Table M7); settings: for MIC: Escherichia coli, ATCC25922, E. coli ATCC 25922
Excerpt: (§1) We have collected MIC data for a total of 50 novel macrolides that this platform has produced against over 21 unique strains of B. subtilis, E. coli, S. aureus, S. pneumoniae, and H. influenzae, including several multidrug-resistant strains, with a special focus on macrolide resistant mechanisms (vide supra). Azithromycin was included as a control macrolide. CLSI standard procedures for broth dilution MIC determination were used. […] These genotypes can be constitutive or inducible. The finding that C4-epi (unnatural) isomers of the “azaketolide” macrolide class have enhanced activities relative to C4 natural isomers is very exciting.

S. aureus strains = test: MIC against S. aureus strains (Table M7); settings: for MIC: Staphylococcus aureus
Excerpt: as §1

S. pneumoniae strains = test: MIC against S. pneumoniae strains (Tables M7, M8); settings: for MIC: Streptococcus pneumoniae
Excerpt: CLSI standard procedures for broth dilution MIC determination were used. […] These genotypes can be constitutive or inducible.

E. faecalis strains = test: MIC against E. faecalis strains (Table M8); settings: for MIC: Enterococcus faecalis, E. faecalis 29212
A. baumannii strains = test: MIC against A. baumannii strains (Table M8); settings: for MIC: Acinetobacter baumannii, BAA747, A. baumannii BAA747-1
K. pneumoniae strains = test: MIC against K. pneumoniae strains (Table M8); settings: for MIC: Klebsiella pneumoniae, K. pneumoniae 10031
H. influenzae strains = test: MIC against H. influenzae strains (Table M8); settings: for MIC: Haemophilus influenzae
Excerpt: as §1

[1] = ATCC29213, S. aureus ATCC 29213, read-out: MIC S. aureus (ATCC 29213)
[2] = S. aureus 183, read-out: MIC S. aureus (183)
[3] = S. aureus 506, read-out: MIC S. aureus (506)
[4] = S. aureus 1708, read-out: MIC S. aureus (1708)
[5] = USA300, S. aureus USA300, read-out: MIC S. aureus (USA300)
[6] = S. pneumoniae 160, read-out: MIC S. pneumonae (160)
[7] = S. pneumoniae 1509, read-out: MIC S. pneumoniae (1509)
[8] = S. pneumoniae 1533, read-out: MIC S. pneumoniae (1533)
[9] = S. pneumoniae 1537, read-out: MIC S. pneumoniae (1537)
[10] = S. pneumoniae 49619, read-out: MIC S. pneumoniae (49619)
[11] = H. influenzae 49247, read-out: MIC H. influenzae (49247)
[12] = H. influenzae 49766, read-out: MIC H. influenzae (49766)

CC[C@H]1OC(=O)[C@H](C)C(=O)[C@H](C)[C@@H](O[C@@H]2OC(C)CC(N(C)C)C2O)[C@](C)(OC)C[C@@H](C)CN[C@H](CCO)[C@H]2N(CCCCn3cc(-c4cccc(N)c4)nn3)C(=O)O[C@]12C (stereo partly drawn) [FSM-11056] gave an MIC (E. coli strains) of over 32 µg/mL, an MIC (S. aureus strains; [1]) of 8 µg/mL (≈ 9.32 µM) and an MIC (S. aureus strains; [2]) of over 32 µg/mL. For the same compound, the MIC (S. aureus strains; [3]) was over 32 µg/mL, the MIC (S. aureus strains; [4]) was 8 µg/mL (≈ 9.32 µM) and the MIC (S. aureus strains; [5]) was 32 µg/mL (≈ 37.3 µM). It also gave an MIC (S. pneumoniae strains; [6]) of 1 µg/mL (≈ 1.17 µM), an MIC (S. pneumoniae strains; [7]) of 0.5 µg/mL (≈ 0.583 µM) and an MIC (S. pneumoniae strains; [8]) of over 32 µg/mL. The MIC (S. pneumoniae strains; [9]) was over 32 µg/mL, the MIC (S. pneumoniae strains; [10]) was 0.125 µg/mL (≈ 0.146 µM) and the MIC (E. faecalis strains) was 2 µg/mL (≈ 2.33 µM). For the same compound, the MIC (A. baumannii strains) was over 32 µg/mL, the MIC (K. pneumoniae strains) was 16 µg/mL (≈ 18.6 µM) and the MIC (H. influenzae strains; [11]) was 4 µg/mL (≈ 4.66 µM). For the same compound, the MIC (H. influenzae strains; [12]) was 16 µg/mL (≈ 18.6 µM).

CC[C@H]1OC(=O)C(C)(F)C(=O)[C@H](C)[C@@H](O[C@@H]2OC(C)CC(N(C)C)C2O)[C@](C)(OC/C=C/c2cnc3ccccc3c2)C[C@@H](C)CN[C@H](C)[C@H]2NC(=O)O[C@@]21C (stereo partly drawn) [FSM-21088] was tested, and the MIC (E. coli strains) was over 32 µg/mL, the MIC (S. aureus strains; [1]) was 16 µg/mL (≈ 20.4 µM) and the MIC (S. aureus strains; [2]) was over 32 µg/mL. It also gave an MIC (S. aureus strains; [3]) of over 32 µg/mL, an MIC (S. aureus strains; [4]) of 8 µg/mL (≈ 10.2 µM) and an MIC (S. aureus strains; [5]) of 16 µg/mL (≈ 20.4 µM). For the same compound, the MIC (S. pneumoniae strains; [6]) was 0.5 µg/mL (≈ 0.637 µM), the MIC (S. pneumoniae strains; [7]) was over 32 µg/mL and the MIC (S. pneumoniae strains; [8]) was over 32 µg/mL. It also gave an MIC (S. pneumoniae strains; [9]) of over 32 µg/mL, an MIC (S. pneumoniae strains; [10]) of 2 µg/mL (≈ 2.55 µM) and an MIC (E. faecalis strains) of 8 µg/mL (≈ 10.2 µM). It also gave an MIC (A. baumannii strains) of over 32 µg/mL, an MIC (K. pneumoniae strains) of over 32 µg/mL and an MIC (H. influenzae strains; [11]) of 8 µg/mL (≈ 10.2 µM). The MIC (H. influenzae strains; [12]) was over 32 µg/mL.

Work on CC[C@H]1OC(=O)[C@H](CC#N)C(=O)[C@H](C)[C@@H](O[C@@H]2OC(C)CC(N(C)C)C2O)[C@](C)(OC)C[C@@H](C)CN[C@H](C)[C@H]2N(CCCCn3cc(-c4cccc(N)c4)nn3)C(=O)O[C@]12C (stereo partly drawn) [FSM-56160] yielded an MIC (E. coli strains) of over 32 µg/mL, an MIC (S. aureus strains; [1]) of over 32 µg/mL and an MIC (S. aureus strains; [2]) of over 32 µg/mL. It also gave an MIC (S. aureus strains; [3]) of over 32 µg/mL, an MIC (S. aureus strains; [4]) of over 32 µg/mL and an MIC (S. aureus strains; [5]) of over 32 µg/mL. It also gave an MIC (S. pneumoniae strains; [6]) of 2 µg/mL (≈ 2.34 µM), an MIC (S. pneumoniae strains; [7]) of over 32 µg/mL and an MIC (S. pneumoniae strains; [8]) of over 32 µg/mL. For the same compound, the MIC (S. pneumoniae strains; [9]) was over 32 µg/mL, the MIC (S. pneumoniae strains; [10]) was 16 µg/mL (≈ 18.8 µM) and the MIC (E. faecalis strains) was 8 µg/mL (≈ 9.38 µM). It also gave an MIC (A. baumannii strains) of over 32 µg/mL, an MIC (K. pneumoniae strains) of 8 µg/mL (≈ 9.38 µM) and an MIC (H. influenzae strains; [11]) of 8 µg/mL (≈ 9.38 µM). It also gave an MIC (H. influenzae strains; [12]) of 32 µg/mL (≈ 37.5 µM).

In the case of C=CC[C@@]1(OC)C[C@@H](C)CN[C@H](C)[C@H]2N(CCCCn3cc(-c4cccc(N)c4)nn3)C(=O)O[C@]2(C)[C@@H](CC)OC(=O)[C@H](C)C(=O)[C@@H](C)[C@H]1O[C@@H]1OC(C)CC(N(C)C)C1O (stereo in doubt) [FSM-21368], the “MIC E. coli (ATCC 25922)” value (E. coli strains; E. coli ATCC 25922) is reported as 8 µg/mL (≈ 9.37 µM), the “MIC S. aureus (183)” value (S. aureus strains; S. aureus 183) is reported as over 32 µg/mL and the “MIC S. aureus (506)” value (S. aureus strains; S. aureus 506) is reported as over 32 µg/mL. For the same compound, the “MIC S. aureus (1708)” value (S. aureus strains; S. aureus 1708) was 16 µg/mL (≈ 18.7 µM), the “MIC S. aureus (ATCC 29213)” value (S. aureus strains; S. aureus ATCC 29213) was 8 µg/mL (≈ 9.37 µM) and the “MIC S. aureus (USA300)” value (S. aureus strains; S. aureus USA300) was 8 µg/mL (≈ 9.37 µM). The “MIC S. pneumonae (160)” value (S. pneumoniae strains; S. pneumoniae 160) was 0.25 µg/mL (≈ 0.293 µM), the “MIC S. pneumoniae (1509)” value (S. pneumoniae strains; S. pneumoniae 1509) was 8 µg/mL (≈ 9.37 µM) and the “MIC S. pneumoniae (1533)” value (S. pneumoniae strains; S. pneumoniae 1533) was over 32 µg/mL. The “MIC S. pneumoniae (1537)” value (S. pneumoniae strains; S. pneumoniae 1537) was over 32 µg/mL, the “MIC S. pneumoniae (49619)” value (S. pneumoniae strains; S. pneumoniae 49619) was 1 µg/mL (≈ 1.17 µM) and the “MIC E. faecalis (29212)” value (E. faecalis strains) was 2 µg/mL (≈ 2.34 µM). For the same compound, the “MIC A. baumannii (BAA747-1)” value (A. baumannii strains; A. baumannii BAA747-1) was 16 µg/mL (≈ 18.7 µM), the “MIC K. pneumoniae (10031)” value (K. pneumoniae strains) was 4 µg/mL (≈ 4.68 µM) and the “MIC H. influenzae (49247)” value (H. influenzae strains; H. influenzae 49247) was 2 µg/mL (≈ 2.34 µM). For the same compound, the “MIC H. influenzae (49766)” value (H. influenzae strains; H. influenzae 49766) was 8 µg/mL (≈ 9.37 µM).

For CC[C@H]1OC(=O)[C@H](C)C(=O)[C@H](C)[C@@H](O[C@@H]2OC(C)CC(N(C)C)C2O)[C@](C)(OC)C[C@@H](C)CN[C@H](Cc2cccc(Br)c2)[C@H]2N(CCCCn3cc(-c4cccc(N)c4)nn3)C(=O)O[C@]12C (stereo partly drawn) [FSM-60415], the MIC (E. coli strains) was over 32 µg/mL, the MIC (S. aureus strains; [1]) was 2 µg/mL (≈ 2.03 µM) and the MIC (S. aureus strains; [2]) was over 32 µg/mL. The MIC (S. aureus strains; [3]) was over 32 µg/mL, the MIC (S. aureus strains; [4]) was 2 µg/mL (≈ 2.03 µM) and the MIC (S. aureus strains; [5]) was 2 µg/mL (≈ 2.03 µM). For the same compound, the MIC (S. pneumoniae strains; [6]) was 0.5 µg/mL (≈ 0.509 µM), the MIC (S. pneumoniae strains; [7]) was 4 µg/mL (≈ 4.07 µM) and the MIC (S. pneumoniae strains; [8]) was 32 µg/mL (≈ 32.6 µM). For the same compound, the MIC (S. pneumoniae strains; [9]) was 32 µg/mL (≈ 32.6 µM), the MIC (S. pneumoniae strains; [10]) was 0.5 µg/mL (≈ 0.509 µM) and the MIC (E. faecalis strains) was 2 µg/mL (≈ 2.03 µM). The MIC (A. baumannii strains) was over 32 µg/mL, the MIC (K. pneumoniae strains) was over 32 µg/mL and the MIC (H. influenzae strains; [11]) was 8 µg/mL (≈ 8.14 µM). The MIC (H. influenzae strains; [12]) was 32 µg/mL (≈ 32.6 µM).

With CC[C@H]1OC(=O)C(C)C(=O)[C@H](C)[C@@H](O[C@@H]2OC(C)CC(N(C)C)C2O)[C@](C)(OC)C[C@@H](C)C(=O)N[C@H](C)[C@H]2N(CCCCn3cc(-c4cccc(N)c4)nn3)C(=O)O[C@]12C (stereo partly drawn) [FSM-21344] the MIC (E. coli strains) was over 32 µg/mL, the MIC (S. aureus strains; [1]) was over 32 µg/mL and the MIC (S. aureus strains; [2]) was over 32 µg/mL. For the same compound, the MIC (S. aureus strains; [3]) was over 32 µg/mL, the MIC (S. aureus strains; [4]) was over 32 µg/mL and the MIC (S. aureus strains; [5]) was over 32 µg/mL. For the same compound, the MIC (S. pneumoniae strains; [6]) was 8 µg/mL (≈ 9.5 µM), the MIC (S. pneumoniae strains; [7]) was 4 µg/mL (≈ 4.75 µM) and the MIC (S. pneumoniae strains; [8]) was over 32 µg/mL. The MIC (S. pneumoniae strains; [9]) was over 32 µg/mL, the MIC (S. pneumoniae strains; [10]) was 0.5 µg/mL (≈ 0.594 µM) and the MIC (E. faecalis strains) was 16 µg/mL (≈ 19 µM). The MIC (A. baumannii strains) was over 32 µg/mL, the MIC (K. pneumoniae strains) was 16 µg/mL (≈ 19 µM) and the MIC (H. influenzae strains; [11]) was 8 µg/mL (≈ 9.5 µM). The MIC (H. influenzae strains; [12]) was 32 µg/mL (≈ 38 µM).

From patent publication US9982005B2, “Macrolides and methods of their preparation and use” (President and Fellows of Harvard College, priority 2013, dated 2018)
